Legend:
Assay in all cases: relative viability (nuclei count vs DMSO), 5 days (fraction); higher = more cells survive
Everolimus + Olaparib = compound: CO[C@H]1C[C@@H]2CC[C@@H](C)[C@@](O)(O2)C(=O)C(=O)N2CCCC[C@H]2C(=O)O[C@H]([C@H](C)C[C@@H]2CC[C@@H](OCCO)[C@H](OC)C2)CC(=O)[C@H](C)/C=C(\C)[C@@H](O)[C@@H](OC)C(=O)[C@H](C)C[C@H](C)/C=C/C=C/C=C/1C [Everolimus] + O=C(c1cc(Cc2n[nH]c(=O)c3ccccc23)ccc1F)N1CCN(C(=O)C2CC2)CC1 [Olaparib] (partner 8 µM)
How it was run: (§1)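 Dosing by pin tool came one day after lung cancer cell lines were seeded in 1536-well plates, using either one drug or a fixed anchor-drug dose plus five library-drug doses (not always all listed) in √10 steps. After 5 days, nuclei were counted on 4× images. Relative viability is treated-well nuclei count divided by vehicle-well nuclei count, and values are medians of duplicate plates.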

Everolimus + Palbociclib = compound: CO[C@H]1C[C@@H]2CC[C@@H](C)[C@@](O)(O2)C(=O)C(=O)N2CCCC[C@H]2C(=O)O[C@H]([C@H](C)C[C@@H]2CC[C@@H](OCCO)[C@H](OC)C2)CC(=O)[C@H](C)/C=C(\C)[C@@H](O)[C@@H](OC)C(=O)[C@H](C)C[C@H](C)/C=C/C=C/C=C/1C [Everolimus] + CC(=O)c1c(C)c2cnc(Nc3ccc(N4CCNCC4)cn3)nc2n(C2CCCC2)c1=O [Palbociclib] (partner 0.5 µM)
How it was run: as §1

Everolimus + Pemetrexed = compound: CO[C@H]1C[C@@H]2CC[C@@H](C)[C@@](O)(O2)C(=O)C(=O)N2CCCC[C@H]2C(=O)O[C@H]([C@H](C)C[C@@H]2CC[C@@H](OCCO)[C@H](OC)C2)CC(=O)[C@H](C)/C=C(\C)[C@@H](O)[C@@H](OC)C(=O)[C@H](C)C[C@H](C)/C=C/C=C/C=C/1C [Everolimus] + Nc1nc2[nH]cc(CCc3ccc(C(=O)N[C@@H](CCC(=O)O)C(=O)O)cc3)c2c(=O)[nH]1 [Pemetrexed] (partner 0.2 µM)
How it was run: as §1

Everolimus + Alpelisib = compound: CO[C@H]1C[C@@H]2CC[C@@H](C)[C@@](O)(O2)C(=O)C(=O)N2CCCC[C@H]2C(=O)O[C@H]([C@H](C)C[C@@H]2CC[C@@H](OCCO)[C@H](OC)C2)CC(=O)[C@H](C)/C=C(\C)[C@@H](O)[C@@H](OC)C(=O)[C@H](C)C[C@H](C)/C=C/C=C/C=C/1C [Everolimus] + Cc1nc(NC(=O)N2CCC[C@H]2C(N)=O)sc1-c1ccnc(C(C)(C)C(F)(F)F)c1 [Alpelisib] (partner 2 µM)
How it was run: as §1

Row | Cell Line | relative viability (Everolimus + Olaparib; first compound 0.01 µM) | relative viability (Everolimus + Olaparib; first compound 0.03162 µM) | relative viability (Everolimus + Olaparib; first compound 0.1 µM) | relative viability (Everolimus + Olaparib; first compound 0.3162 µM) | relative viability (Everolimus + Olaparib; first compound 1 µM) | relative viability (Everolimus + Palbociclib; first compound 0.01 µM) | relative viability (Everolimus + Palbociclib; first compound 0.03162 µM) | relative viability (Everolimus + Palbociclib; first compound 0.1 µM) | relative viability (Everolimus + Palbociclib; first compound 0.3162 µM) | relative viability (Everolimus + Palbociclib; first compound 1 µM) | relative viability (Everolimus + Pemetrexed; first compound 0.01 µM) | relative viability (Everolimus + Pemetrexed; first compound 0.03162 µM) | relative viability (Everolimus + Pemetrexed; first compound 0.1 µM) | relative viability (Everolimus + Pemetrexed; first compound 0.3162 µM) | relative viability (Everolimus + Pemetrexed; first compound 1 µM) | relative viability (Everolimus + Alpelisib; first compound 0.01 µM) | relative viability (Everolimus + Alpelisib; first compound 0.03162 µM) | relative viability (Everolimus + Alpelisib; first compound 0.1 µM) | relative viability (Everolimus + Alpelisib; first compound 0.3162 µM) | relative viability (Everolimus + Alpelisib; first compound 1 µM)
1 | 201T | 0.716 | 0.802 | 0.724 | 0.786 | 0.783 | 0.322 | 0.306 | 0.274 | 0.306 | 0.231 | 0.365 | 0.383 | 0.32 | 0.307 | 0.317 | 0.919 | 0.893 | 0.859 | 0.847 | 0.893
2 | A549 | 0.204 | 0.234 | 0.232 | 0.237 | 0.215 | – | – | – | – | – | – | – | – | – | – | 0.328 | 0.292 | 0.272 | 0.323 | 0.204
3 | A-427 | 0.576 | 0.723 | 0.635 | 0.656 | 0.691 | 0.474 | 0.546 | 0.445 | 0.48 | 0.557 | 0.757 | 0.856 | 0.799 | 0.788 | 0.891 | 0.795 | 0.709 | 0.754 | 0.675 | 0.787
4 | ABC-1 | 1.17 | – | 1 | – | 0.749 | 0.468 | – | 0.43 | – | 0.598 | – | – | – | – | – | 0.682 | 0.617 | 0.636 | 0.678 | 0.539
5 | BEN | 0.671 | 0.472 | 0.505 | 0.512 | 0.59 | 0.442 | 0.421 | 0.443 | 0.438 | 0.463 | 0.552 | 0.458 | 0.501 | 0.521 | 0.618 | 0.545 | 0.399 | 0.319 | 0.436 | 0.344
6 | CAL-12T | 0.527 | 0.486 | 0.483 | 0.473 | 0.379 | 0.461 | 0.236 | 0.152 | 0.217 | 0.388 | 0.572 | 0.58 | 0.664 | 0.653 | 0.627 | 0.378 | 0.464 | 0.266 | 0.351 | 0.46
7 | COR-L23 | 0.321 | 0.346 | 0.334 | 0.282 | 0.352 | 0.224 | 0.27 | 0.233 | 0.271 | 0.218 | 0.196 | 0.194 | 0.189 | 0.193 | 0.186 | 0.492 | 0.476 | 0.482 | 0.505 | 0.567
8 | COR-L 105 | 0.649 | 0.627 | 0.497 | 0.581 | 0.516 | 0.465 | 0.368 | 0.365 | 0.344 | 0.343 | 0.9 | 0.806 | 0.75 | 0.792 | 0.716 | 0.585 | 0.526 | 0.489 | 0.567 | 0.518
9 | Calu-6 | 0.624 | 0.68 | 0.646 | 0.552 | 0.705 | – | – | – | – | – | – | – | – | – | – | 0.65 | 0.604 | 0.593 | 0.608 | 0.614

Source: the supplement of paper PMC10307832
